Paper PMC11272826, “Metabolism of alcohol ethoxylates (AEs) in rat, hamster, and human hepatocytes and liver S9: a pilot study for metabolic stability, metabolic pathway, and metabolites identification in vitro and in silico” (Archives of Toxicology, 2024)

What was measured:
[1] = system: adult males; design: method as in Drotman [1980]; conditions: ref Drotman [1980], cited from earlier work; for Amounts in the blood / Radioactivity recovered after 144 h in urine, feces, and air: human males, 50 mg capsule; for Excreted within the first 24 h: radiolabeled, human male volunteers
[2] = system: female Colworth Wistar rats; design: method as in Unilever [1978]; conditions: 14C-labelled, oral, rat, ref Unilever [1978], cited from earlier work
[3] = Metabolic stability in cryopreserved hepatocytes (disappearance, half-life, CLint); conditions: Syrian, hamster, pooled cryopreserved hepatocytes, pH 7.4
Method: (§2) The metabolic stability assay was performed in a 48-well plate format (duplicate with cells and single without cells).
(§3) The hepatocytes were thawed and re-suspended in Celsis InVitro KHB medium (pH 7.4). […] The samples were collected and stored at − 20 °C for further analysis.
(§4) The UPLC-Q-Exactive Orbitrap MS system consisted of a Thermo Vanquish Horizon UHPLC with an autosampler, vacuum degasser, photodiode array (PDA) detector (210–500 nm), and column oven coupled to a Q-Exactive Orbitrap Focus mass spectrometer (Thermo Fisher Scientific, Waltham, MA, USA). The analytical column used was a Waters Acquity BEH C8 2.1 × 50 mm with 1.7 particle size (Waters Corp, Milford, MA, USA). The temperature of the column oven was 40 °C, and the injection volume was 4 μl. The aqueous eluent (A) was 0.1% formic acid (B) was acetonitrile. […] The eluent flow rate was 0.5 ml/min and the flow was directed to the MS through a PDA detector. The data acquisition was performed using positive Electrospray Ionization (ESI+) polarity with a capillary voltage of 3000 V. Capillary temperature was 320 °C and auxiliary gas temperature was 500 °C. The mass spectrometer was operated in the data-dependent MS2 mode, which acquires full-scan MS and MS/MS fragment ion data in the same run. Scan was performed with a resolution of 35,000 (full width at half maximum at m/z 200), while an Automated Gain Control target of a million ions, maximum injection time of 100 ms, and a scan range of 100–1000 m/z were used. […] Nitrogen was used as a sheath gas with 50 units, auxiliary gas with 10 units and as a sweep gas with 5 units. Ion chromatograms were extracted from the total ion chromatograms using calculated monoisotopic accurate masses with 5 mDa window. Calibration curves were generated using an external standard. The data were processed with Thermo Xcalibur 4.1.31.9 software.
(§5) The first-order rate constants k (min^−1) of the metabolism were obtained from the slope of time versus ln (% remaining) plots using Excel software. All time points (log-scale) were used in fitting the rate constant k based on visual inspection of the curves.
(§6) The in vitro half-life (t1/2) of the test compound(s) is defined as: t1/2=ln2/k
(§7) CLint,inc = k*V/(M), where V is the volume of the incubation and M is the number of cells or amount of S9 protein in the incubation.

[4] = system: hamster hepatocytes; experiment: as above; conditions: hamster hepatocytes, range over 1 and 10 µM
Method: as §2, §3, §4, §5, §6, §7

[5] = system: rat hepatocytes; experiment: Metabolite profiling by LC-MS in hepatocytes; conditions: for Number of metabolites detected: rat hepatocytes
Method: as §3
(§8) The in vitro metabolism of the five individual homologue AEs (i.e. C8EO4, C10EO5, C12EO4, C16EO8, and C18EO3) was analyzed by liquid chromatography–mass spectrometry (LC–MS). The UPLC-Q-Exactive Orbitrap MS system consisted of a Thermo Vanquish Horizon UHPLC with an autosampler, vacuum degasser, photodiode array (PDA) detector (210–500 nm), and column oven coupled to a Q-Exactive Orbitrap Focus mass spectrometer (Thermo Fisher Scientific, Waltham, MA, USA). The analytical column used was a Waters Acquity BEH C8 2.1 × 50 mm with 1.7 particle size (Waters Corp, Milford, MA, USA). The temperature of the column oven was 40 °C, and the injection volume was 4 μl. The aqueous eluent (A) was 0.1% formic acid (B) was acetonitrile. […] The eluent flow rate was 0.5 ml/min and the flow was directed to the MS through a PDA detector. The data acquisition was performed using positive Electrospray Ionization (ESI+) polarity with a capillary voltage of 3000 V. Capillary temperature was 320 °C and auxiliary gas temperature was 500 °C. The mass spectrometer was operated in the data-dependent MS2 mode, which acquires full-scan MS and MS/MS fragment ion data in the same run. Scan was performed with a resolution of 35,000 (full width at half maximum at m/z 200), while an Automated Gain Control target of a million ions, maximum injection time of 100 ms, and a scan range of 100–1000 m/z were used. […] Nitrogen was used as a sheath gas with 50 units, auxiliary gas with 10 units and as a sweep gas with 5 units. Ion chromatograms were extracted from the total ion chromatograms using calculated monoisotopic accurate masses with 5 mDa window. Calibration curves were generated using an external standard. The data were processed with Thermo Xcalibur 4.1.31.9 software.

[6] = Metabolite profiling by LC-MS in buffer (incubation without cells); conditions: metabolite profile of C16EO8, 10 µM incubation, 120 min, buffer without cells
Method: as §3, §8

[7] = Metabolite profiling by LC-MS in liver S9
Description: (§1) Calibration curves were generated using an external standard.

[8] = Metabolic stability in cryopreserved hepatocytes (disappearance, half-life, CLint); conditions: Sprague Dawley, rat, pooled cryopreserved hepatocytes, pH 7.4
Method: as §2, §3, §4, §5, §6, §7

[9] = as above; conditions: human, pooled cryopreserved hepatocytes, pH 7.4
Method: as §2, §3, §4, §5, §6, §7

[10] = system: human hepatocytes; experiment: as above; conditions: human hepatocytes, range over 1 and 10 µM
Method: as §2, §3, §4, §5, §6, §7

[11] = system: human hepatocytes; experiment: Metabolite profiling by LC-MS in hepatocytes; conditions: for Number of metabolites detected: human hepatocytes
Method: as §3, §8

[12] = Metabolic stability in liver S9 fraction (disappearance, half-life, CLint); conditions: human
[13] = as above
Method: as §1
Intrinsic in vitro clearance was calculated as follows: […]

[14] = system: hamster hepatocytes; experiment: Metabolite profiling by LC-MS in hepatocytes; conditions: for Number of metabolites detected: hamster hepatocytes
Method: as §3, §8

[15] = metabolite profile of C16EO8, 10 µM incubation, 120 min
[16] = metabolite profile of C16EO8, 10 µM incubation, 60 min, with cofactors
[17] = metabolite profile of C16EO8, 10 µM incubation, 60 min, without cofactors
[18] = pooled liver S9, pH 7.4, Half-lives t1/2, Liver S9, 1 μM
[19] = Sprague-Dawley, rat, pooled liver S9, pH 7.4
[20] = Syrian, hamster, pooled liver S9, pH 7.4
[21] = metabolite profile of C18EO3, 10 µM incubation, 120 min
[22] = metabolite profile of C18EO3, 10 µM incubation, 60 min
[23] = Sprague-Dawley, rat, s9, pH 7.4

CCCCCCCCCCCCOCCOCCOCCOCCOCCOCCO [C12EO6]
Amounts in the blood [1]: ≤ 1%
Radioactivity recovered after 144 h in urine, feces, and air [1]: 83–89%
Excreted within the first 24 h [1]: 75%
Total recovery in urine, feces, air, and carcass of the administered compound ([2]; 4 days): ~100%
14C in air [2]: about 10%

CCCCCCCCCCCCCOCCOCCOCCOCCOCCOCCO [C13EO6]
Amounts in the blood [1]: ≤ 1%
Radioactivity recovered after 144 h in urine, feces, and air [1]: 83–89%
Excreted within the first 24 h [1]: 75%

CCCCCCCCCCCCCCCCOCCOCCOCCOCCOCCOCCOCCOCCO [C16EO8]
half-life at 1 µM [3]: 27 min
half-life at 10 µM [3]: 30 min
Initial concentration remaining after 120 min incubation [4]: 4–5%
Hepatocytes, % Rat (percentage of the total peak area) [5, 15]: 1.0%
Number of metabolites detected [5]: 32
Hepatocytes, % Buffer (percentage of the total peak area) [6]: 29.7%
Number of metabolites detected ([7]; hamster liver S9): 33
Number of metabolites detected ([7]; human liver S9): 33
Liver S9 with cofactors, % Hamster (percentage of the total peak area) [7, 16]: 82.7%
Liver S9 with cofactors, % Human (percentage of the total peak area) [7, 16]: 72.0%
Liver S9 with cofactors, % Rat (percentage of the total peak area) [7, 16]: 85.8%
Liver S9 without cofactors, % Hamster (percentage of the total peak area) [7, 17]: 97.4%
Liver S9 without cofactors, % Human (percentage of the total peak area) [7, 17]: 96.6%
Liver S9 without cofactors, % Rat (percentage of the total peak area) [7, 17]: 98.7%
Number of metabolites detected ([7]; rat liver S9): 33
half-life at 1 µM [8]: 6.6 min
half-life at 10 µM [8]: 9.2 min
half-life at 1 µM [9]: 39 min
half-life at 10 µM [9]: 85 min
Initial concentration remaining after 120 min incubation [10]: 11–36%
Number of metabolites detected [11]: 32
Hepatocytes, % Human (percentage of the total peak area) [11, 15]: 30.3%
microsomal CLint at 1 µM ([12]; pooled liver S9, pH 7.4): 3.33 µL/min/mg
half-life at 1 µM [12, 18]: 139 min
half-life at 1 µM [13, 19]: 16 min
microsomal CLint at 1 µM [13, 19]: 29.6 µL/min/mg
half-life at 1 µM [13, 20]: 118 min
microsomal CLint at 1 µM [13, 20]: 3.92 µL/min/mg
Number of metabolites detected [14]: 32
Hepatocytes, % Hamster (percentage of the total peak area) [14, 15]: 10.6%

CCCCCCCCCCCCCCCCCCOCCOCCOCCO [C18EO3]
Percentage of the total peak area, Hepatocytes, Rat [5, 21]: 98.3%
Number of metabolites detected [5]: 4
Number of metabolites detected ([7]; human liver S9): 11
Percentage of the total peak area, Liver S9 with cofactors, Hamster [7, 22]: 79.9%
Percentage of the total peak area, Liver S9 with cofactors, Human [7, 22]: 58.2%
Percentage of the total peak area, Liver S9 with cofactors, Rat [7, 22]: 90.3%
Percentage of the total peak area, Liver S9 without cofactors, Hamster [7, 22]: 100.0%
Percentage of the total peak area, Liver S9 without cofactors, Human [7, 22]: 100.0%
Percentage of the total peak area, Liver S9 without cofactors, Rat [7, 22]: 100.0%
Number of metabolites detected [11]: 9
Percentage of the total peak area, Hepatocytes, Human [11, 21]: 8.9%
microsomal CLint at 1 µM ([12]; pooled liver S9, pH 7.4): 15.9 µL/min/mg
half-life at 1 µM [12, 18]: ≥ 29 min
half-life at 1 µM [13, 19]: 32 min
microsomal CLint at 1 µM [13, 19]: 14.6 µL/min/mg
half-life at 1 µM [13, 20]: 29 min
microsomal CLint at 1 µM [13, 20]: 16.2 µL/min/mg
Number of metabolites detected [14]: 4
Percentage of the total peak area, Hepatocytes, Hamster [14, 21]: 97.5%

Cc1ncc2n1-c1ccc(Cl)cc1C(c1ccccc1F)=NC2 [midazolam, Midazolam, reference compound]
half-life at 1 µM ([12]; s9, pH 7.4): < 6.3 min
microsomal CLint at 1 µM ([12]; s9, pH 7.4): > 75 µL/min/mg
half-life at 1 µM [13, 23]: 11.8 min
microsomal CLint at 1 µM [13, 23]: 39.1 µL/min/mg
half-life at 1 µM ([13]; Syrian, hamster, s9, pH 7.4): < 6.3 min
microsomal CLint at 1 µM ([13]; Syrian, hamster, s9, pH 7.4): > 75 µL/min/mg
